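Cells were grown in 96-well plates and exposed to each compound for 48 hours at five concentrations; endpoints were interpolated linearly between bracketing concentrations, or set to the highest concentration if not reached. At the GI50, growth is halved.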 Active and inactive are the calls of the source. Cut-off read from the data, not from the text of the source: active = GI50 up to about 1.1 µM and inactive = higher.

This is an account of results in ChEMBL document CHEMBL1201862, “PubChem BioAssay data set” (2004).

Among the test systems are SF-268; NCI-H23; HL-60; 786-0; OVCAR-8; UACC-257; UACC-62; HCT-15; RPMI-8226; SNB-75; U-251; Hs-578T; SF-295; CCRF-CEM; SN12C; T47D; LXFL 529; A498; NCI-H522; SW-620.
Common to all, as to assay: inhibition of tumour cell growth, NCI panel, 48 h

On to `O=C1c2ccccc2C(=O)c2c(NCCCNCCO)ccc(NCCCNCCO)c21`, for which the GI50 with SF-268 was 4.82 µM (inactive); in the test with NCI-H23 it was 10.7 µM (inactive); in the test with HL-60, 8.97 µM (inactive); in the test on 786-0, 4.79 µM (inactive); in the test with OVCAR-8, 7.74 µM (inactive); in the test with UACC-257 it was 15.2 µM (inactive). Besides, the GI50 in the test on UACC-62 was 9.42 µM (inactive); in the test with HCT-15, 12.9 µM; in the test on RPMI-8226 it was 10.6 µM (inactive); in the test on SNB-75, 7.13 µM (inactive); in the test with U-251, 5.36 µM (inactive); with Hs-578T it was 5.52 µM (inactive). Also, the GI50 was 7.33 µM (inactive) in the test on SF-295; 3.08 µM (inactive) in the test on CCRF-CEM; 4 µM (inactive) in the test with SN12C; 8.91 µM (inactive) in the test with T47D; 3.85 µM (inactive) in the test with LXFL 529; 15.9 µM (inactive) in the test on A498. For the same molecule, the GI50 in the test with NCI-H522 is 3.03 µM (inactive); in the test on SW-620 it was 5.13 µM (inactive).

Regarding `OC1(c2ccccc2)OC(C#Cc2ccccc2)(c2ccccc2)c2ccccc21` (stereo not drawn), the GI50 was 4.18 µM (inactive) in the test on SF-268; 3.47 µM (inactive) in the test with NCI-H23; 2.58 µM (inactive) in the test on HL-60; 3.73 µM (inactive) with 786-0; 2.45 µM (inactive) in the test on OVCAR-8; 8.32 µM (inactive) in the test with UACC-257. Besides, the GI50 in the test with UACC-62 was 1.94 µM (inactive); with HCT-15, 3.44 µM; in the test with RPMI-8226, 1.94 µM (inactive); with SNB-75, 6.1 µM (inactive); with U-251, 4.12 µM (inactive); with SF-295, 5.57 µM (inactive). In addition, the GI50 is 2.73 µM (inactive) in the test on CCRF-CEM; 3.25 µM (inactive) with SN12C; 6.22 µM (inactive) in the test with LXFL 529; 2.82 µM (inactive) in the test with A498; 7.48 µM (inactive) with NCI-H522; 4.12 µM (inactive) with SW-620.

`Cc1cccc(C)c1NC(=O)C(C#N)C1=C(Cl)C(=O)c2ccccc2C1=O` (stereo not drawn): the GI50 is 15.5 µM (inactive) in the test on SF-268; 18.7 µM (inactive) with NCI-H23; 5.53 µM (inactive) with HL-60; 22 µM (inactive) in the test on 786-0; 16.9 µM (inactive) in the test on OVCAR-8; 13.9 µM (inactive) with UACC-257. Moreover, the GI50 with UACC-62 is 16.1 µM (inactive); in the test with HCT-15 it was 19.1 µM; with RPMI-8226 it was 8.67 µM (inactive); in the test on SNB-75 it was 15.7 µM (inactive); in the test with U-251, 18.1 µM (inactive); in the test on Hs-578T, 12.1 µM (inactive). The GI50 in the test with SF-295 is 16.3 µM (inactive); with CCRF-CEM, 1.62 µM (inactive); with SN12C it was 17.4 µM (inactive); with LXFL 529, 16.1 µM (inactive); in the test on A498 it was 14.8 µM (inactive); with NCI-H522, 10.5 µM (inactive). Further, in the test with SW-620, the GI50 was 11.9 µM (inactive).

On to `C[C@]12CCCC(=O)C1(O)C[C@H](C(=O)O)CC2` (stereo partly drawn), for which the GI50 in the test on SF-268, in the test on NCI-H23, in the test with HL-60, with 786-0, in the test on OVCAR-8 and in the test with UACC-257 was > 100 µM (inactive) in each case. Moreover, the GI50 is > 100 µM (inactive) in the test on UACC-62; over 100 µM with HCT-15; > 100 µM (inactive) in the test on RPMI-8226; > 100 µM (inactive) with SNB-75; > 100 µM (inactive) with U-251; > 100 µM (inactive) in the test with SF-295. Further, the GI50 in the test with CCRF-CEM, with SN12C, with LXFL 529, in the test with A498, with NCI-H522 and with SW-620 was > 100 µM (inactive) throughout.

On to `CCN(CC)CCNc1ccc2nc(C)n3c4ccc(OC)cc4c(=O)c1c23`, for which the GI50 in the test with SF-268 was 0.979 µM (active); in the test with NCI-H23, 2.06 µM (inactive); with HL-60, 1.17 µM (inactive); in the test on 786-0, 0.558 µM (active); with OVCAR-8, 0.575 µM (active); with UACC-257, 8.75 µM (inactive). Besides, the GI50 with UACC-62 is 4.9 µM (inactive); in the test with HCT-15, 1.22 µM; in the test on RPMI-8226 it was 1.36 µM (inactive); with SNB-75, 4.68 µM (inactive); in the test on U-251 it was 4.39 µM (inactive); in the test with Hs-578T it was 1.04 µM (active). In addition, the GI50 in the test on SF-295 is 0.641 µM (active); with CCRF-CEM it was 0.126 µM (active); in the test with SN12C it was 0.546 µM (active); with T47D, 17.8 µM (inactive); with LXFL 529 it was 1.41 µM (inactive); in the test with A498, 3.7 µM (inactive). Also, the figures for the GI50 with NCI-H522 and in the test with SW-620 were 0.272 µM (active) and 0.711 µM (active), respectively.

For the molecule `COc1cc(C2Oc3cc(-c4oc5cc(O)cc(O)c5c(=O)c4O)ccc3OC2CO)ccc1O` (stereo not drawn) [DEHYDROSILYLBIN], the GI50 with SF-268 was 7.46 µM (inactive); with NCI-H23, 4.3 µM (inactive); in the test with HL-60, 9.48 µM (inactive); in the test on 786-0, 8.55 µM (inactive); in the test on OVCAR-8, 30.1 µM (inactive); with UACC-257, 32 µM (inactive). Also, the GI50 in the test with UACC-62 was 3.42 µM (inactive); with HCT-15, 9.31 µM; in the test with RPMI-8226, 4.41 µM (inactive); with SNB-75, 5 µM (inactive); with U-251, 6.68 µM (inactive); in the test on SF-295 it was 10.7 µM (inactive). In addition, the GI50 with CCRF-CEM was 5.77 µM (inactive); with SN12C it was 10.8 µM (inactive); with LXFL 529, 5.26 µM (inactive); in the test on A498, 9.27 µM (inactive); in the test on NCI-H522, 3.03 µM (inactive); in the test with SW-620, 8.55 µM (inactive).
